The term IC50 denotes the point on the concentration scale where inhibition reaches its midpoint.

Assay [1] has as its system Ovarian cancer cells (OVCAR3). Description: Inhibitory activity against ovarian cancer cells (OVCAR3), CTG cell viability. The class given is cell-based. The settings on record: Homo sapiens, OVCAR-3, 168 h, 7 days with compound. How it is done:
Ovarian cancer cells (OVCAR3) were cultured using an RPMI 1640 culture medium containing 10% FBS in a cell incubator (37 °C, 5% CO2). On day one, the cells were plated in a 384-well plate at a cell concentration of 800 cells/well and cultured overnight in an incubator. On day two, the cells were treated with compounds. The highest compound concentration was 10 µM and was diluted 3-fold to obtain 9 concentrations, and the final concentration of DMSO was 0.1%. After the cells were cultured in the incubator for another 7 days, the cell viability was tested using a CTG Cell Viability Detection Reagent (MCE); the testing method was consistent with the method provided by the kit. Data were processed using GraphPad Prism 8, and IC50 was calculated. [formula] X: the logarithm of the compound concentration; Y: inhibition%. Table 2. The IC50 (nM) of compounds of the present disclosure against OVCAR3

Assay [2] deals with Triple-negative breast cancer cells (HCC1806). Description: Inhibitory activity against triple-negative breast cancer cells (HCC1806), CTG cell viability. The class given is cell-based. The settings on record: Homo sapiens, 168 h, 7 days with compound. Here is the method: Triple-negative breast cancer cells (HCC1806, Nanjing Cobioer Biosciences Co., Ltd.) were cultured using an RPMI 1640 culture medium containing 10% FBS in a cell incubator (37 °C, 5% CO2). On day one, the cells were plated in a 384-well plate at a cell concentration of 200 cells/well and cultured overnight in an incubator. On day two, the cells were treated with compounds. The highest compound concentration was 10 µM and was diluted 3-fold to obtain 9 concentrations, and the final concentration of DMSO was 0.2%. After the cells were cultured in the incubator for another 7 days, the cell viability was tested using a CTG Cell Viability Detection Reagent (MCE); the testing method was consistent with the method provided by the kit. Data were processed using XLfit, and IC50 was calculated. [formula] X: the logarithm of the compound concentration; Y: inhibition%. Table 4. The IC50 (nM) of compounds of the present disclosure against HCC1806

For assay [3], the target named is T1, CDK4/CycD1 (Homo sapiens, UniProt P11802).
T1 construct: purchased Invitrogen PR8064A
T1 sequence (P11802 whole entry): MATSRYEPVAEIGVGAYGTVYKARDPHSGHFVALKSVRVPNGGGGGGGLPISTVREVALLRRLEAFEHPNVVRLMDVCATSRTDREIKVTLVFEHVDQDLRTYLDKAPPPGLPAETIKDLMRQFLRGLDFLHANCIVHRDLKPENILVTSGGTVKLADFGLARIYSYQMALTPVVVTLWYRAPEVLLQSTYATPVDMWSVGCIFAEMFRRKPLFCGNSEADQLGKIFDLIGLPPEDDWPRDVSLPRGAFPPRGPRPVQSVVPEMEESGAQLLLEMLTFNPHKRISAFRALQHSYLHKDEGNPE
T1 sequence (P24385 whole entry partner): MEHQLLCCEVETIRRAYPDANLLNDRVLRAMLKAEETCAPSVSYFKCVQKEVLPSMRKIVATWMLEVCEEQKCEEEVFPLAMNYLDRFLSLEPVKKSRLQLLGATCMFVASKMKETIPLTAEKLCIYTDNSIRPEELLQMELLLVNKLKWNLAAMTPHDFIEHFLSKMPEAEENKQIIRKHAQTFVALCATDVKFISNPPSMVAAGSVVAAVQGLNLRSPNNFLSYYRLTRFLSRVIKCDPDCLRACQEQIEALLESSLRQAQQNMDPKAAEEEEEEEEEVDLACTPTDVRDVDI
Description: Activity against cyclin-dependent kinase CDK4/CycD1 (Caliper EZ Reader mobility shift). The class given is biochemical. The following applies: 1 h at room temperature; highest concentration 1 µM. How it is done:
The test compounds (the highest concentration was 1 µM) were added using Echo 650 and serially diluted 3-fold to obtain a total of 9 concentration points. The assay plate was sealed and centrifuged at 1000 g for 1 min. 2.5× enzymes were prepared in a 1× kinase buffer (50 mM HEPES, pH 7.5, 0.0015% Brij-35, […]), and the 2.5× enzymes (10 µL) were added to the 384-well assay plate. The plate was centrifuged at 1000 g for 30 s and left to stand at room temperature for 10 min. 2.5× substrate and ATP mixtures were prepared in the 1× kinase buffer, and the 2.5× substrate and ATP mixtures (10 µL) were added to start reactions. The assay plate was centrifuged at 1000 g for 30 s, sealed, and incubated at room temperature for 1 h. 25 µL of a stop solution reagent (100 mM HEPES, pH 7.5, 0.015% Brij-35, 0.2% Coating Reagent #3, 50 mM EDTA) was added.
Conversion rate data were read on a CaliperEZ Reader. The conversion rate data were copied from the CaliperEZ Reader. The conversion rates were converted to inhibition rate data. Inhibition% = (max−conversion)/(max−min) × 100, [formula] where "min" is the reading of a control sample well to which no enzyme was added for reaction; "max" is the reading of a control well to which DMSO was added.
IC50 values were obtained by fitting using XLFit excel add-in version 5.4.0.8. Y = Bottom + (Top−Bottom)/(1+((IC50/X))^(∧)HillSlope). [formula] Table 6. […]

For the molecule `C[C@H]1COc2c(-c3nc(Nc4ccc(N5CCOCC5=O)cc4F)ncc3Cl)cc(F)c3nc(C(C)(C)O)n1c23` [Example 1, (S)-4-(4-((5-Chloro-4-(8-fluoro-2-(2-hydroxypropan-2-yl)-3-methyl-3,4-dihydro-5-oxa-1,2a-diazaacenaphthylen-6-yl)pyrimidin-2-yl)amino)-3-fluorophenyl)morpholin-3-one], the IC50 in assay [1] turned out to be 672 nM; in assay [2] it was 150 nM; in assay [3], 3.8 nM.

The record behind these values is patent EP4752149A1, “OXYGEN-CONTAINING FUSED TRICYCLIC DERIVATIVE, AND PREPARATION METHOD THEREFOR AND USE THEREOF” (Tuojie Biotech (Shanghai) Co., Ltd., priority 2023, dated 2025).
